Read-outs that look alike come from different tables or passages of the source.
Legend:
H460 cell line = test: Hypoxia-dependent cytotoxicity experiment (2 hours exposure, air or N2, CTG); assay type: cell-based; conditions: Homo sapiens, then 3 days
Description: To determine the effect of the compounds of the present disclosure on cancer cell proliferation, these compounds were tested for cancer cell anti-proliferative activity in a porous CTG-based assay. Cell growth was compared in the present (treatment groups) and the absence of the test compound. 10,000 cells/well/495 μL of medium was used to test the following cell line, a human tumor cell line of H460 non-small cell lung cancer. The cells were seeded on glass-inserts located in each well of 24-well plates with a density and medium as specified above. 24 hours later, the plates were divided into 2 groups, hypoxia (using N2) group and air group. TH-302 at the concentrations from 100, 10, 0.1 to 0.01 μM, and the test compounds at the concentrations from 10, 1, 0.1, 0.01, 0.001 to 0.0001 were added to each well (500 μL volume) of the treatment groups. The final DMSO concentration in each well was lower than or equal to 1%. The cells in the hypoxia group were incubated for 2 hours in an ELECTROTEK hypoxia workstation. The cells in the air group were incubated for 2 hours in a standard culture incubator. 2 hours later, the test compounds were removed from each well. The cells were washed with 500 μL of medium and incubated in 500 μL of fresh medium for 3 days. 3 days later, 200 μL of medium per well was discarded. 60 μL of CTG was added to the wells, and the plates were placed at room temperature for 15 minutes in the dark. 100 μL of medium from each well of the 24-well plates was transferred to 96-well plates. The chemiluminescence signal values were read with an M5 full-band multi-mode-function microplate reader, and integration=750 ms. The compounds of control 1 and control 2 were used as controls.

AA8 cell line = test: Cytotoxicity on AA8 cell line (2 hours exposure, AlamarBlue); assay type: cell-based, Chinese hamster; conditions: Cricetulus griseus, CHO-AA8; AA8, 2 hours exposure, then 70 hours, normoxic
[1] = Hepatomicrosome stability, human; conditions: for Remaining percentage after 30 minutes: Human, 2 μM
Description: 1a) With NADPH: 10 μL of 20 mg/mL of hepatomicrosome and 40 μL of 10 mM of NADPH were added to medium. The final concentrations of hepatomicrosome and NADPH were 0.5 mg/mL and 1 mM, respectively.
1b) Without NADPH: 10 μL of 20 mg/mL hepatomicrosome and 40 μL of ultra-pure H2O were added to medium. The final concentration of hepatomicrosome was 0.5 mg/mL.
3) 3) Aliquots of 50 μL from the reaction solutions at 0 minute and 30 minutes were taken. The reaction solutions were stopped by adding 4 volumes of cold acetonitrile and 4 internal standards (IS internal standard, 100 nM of Alprazolam, 200 nM of caffeine, 200 nM of Labetalol, and 2 μM of Ketoprofen) to stop the reaction solution. The samples were centrifuged at 3,220 g for 40 minutes. Aliquots of 100 μL of the supernatants were mixed with 100 μL of ultra-pure H2O. Then, the mixtures were used for LC-MS/MS analysis. All experiments were performed in duplicate. The test results were as follow.

Plasma stability, human = assay type: in vitro ADME; conditions: 5 μM, 37° C., after 30 minutes
Description: Frozen plasma was melted immediately in a water bath at 37° C. […] The supernatants were collected into new tubes, respectively. pH values of the plasma were checked and recorded. Note: a, no more 2 times melted plasma was used since the sample was received; b, the plasma in pH 7 to pH 8 was used.
1 mM of working solution of the test compounds and the control compound, propantheline, were prepared in DMSO. 1 mM of working solution of the control compound in […] was prepared in acetonitrile. 4 μL of the working solutions were added to 796 μL of pre-incubated plasma respectively to achieve a final concentration of 5 μM. The final concentration of solvent was 0.5%.
Aliquots of 50 μL of labelled plasma were transferred to new tubes and incubated in a water bath at 37° C. at approximately 60 rpm for 2 hours. The test was performed in duplicate. […] 50 μL of the labeled plasma was added to new tubes containing 300 μL of the quench solution of room temperature, i.e., the sample with a preparation time of 0. The samples were vortexed to mix for 5 minutes. […] 100 μL of the supernatant was transferred to new plates.

O=[N+]([O-])c1ccc(C(OP(=O)(N2CC2)N2CC2)C(F)(F)F)c2ccccc12 (stereo not shown) [Compound 01]
IC50 (H460 cell line; NCI-H460, H460, air, read-out: Normoxia: IC50): 331 nM | IC50 (H460 cell line; NCI-H460, H460, hypoxia (N2), read-out: N2: IC50): 23.9 nM | IC50 (AA8 cell line): 10800 nM | Remaining percentage after 30 minutes ([1]; with NADPH): 96.39% | Remaining percentage after 30 minutes ([1]; without NADPH): 82.15% | Stability in hepatomicrosomes (conclusion) ([1]; human): relatively stable | Remaining percentage (Plasma stability, human): 68.68%
